For 4 molecules, IC50 results are on record in patent publication US20260250320A1, “LIPIDATED PEPTIDE INHIBITORS OF INTERLEUKIN-23 RECEPTOR” (Janssen Pharmaceutica NV, priority 2023, published 2026).

Test [1] has as its system IL-23-stimulated phosphorylated STAT3 in peripheral blood mononuclear cells (PBMCs). As to the kind of experiment: PBMC pSTAT3 Assay. It is filed as cell-based. Conditions: PBMCs from healthy donors; 30 min preincubation with peptide; IL-23 5 ng/mL for 30 min; phospho-STAT3 by MSD. The gist of the method:
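Healthy-donor PBMCs expanded 4 days on anti-CD3 with 100 ng/mL IL-1β, starved ~4 h in RPMI-0.1% BSA, preincubated 30 min with peptide, then stimulated 30 min at 37 °C with 5 ng/mL IL-23. Lysate pSTAT3 measured by MSD phospho-STAT panel; IC50 derived.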

Test [2] addresses T1, IL-23R (Homo sapiens, UniProt Q5VWK5).
T1 construct: HEK293 cells containing IL-23R, IL-12Rβ1 and a firefly luciferase reporter gene driven by a STAT-inducible promoter (Promega); host or cells: HEK293
T1 sequence (Q5VWK5 24-629): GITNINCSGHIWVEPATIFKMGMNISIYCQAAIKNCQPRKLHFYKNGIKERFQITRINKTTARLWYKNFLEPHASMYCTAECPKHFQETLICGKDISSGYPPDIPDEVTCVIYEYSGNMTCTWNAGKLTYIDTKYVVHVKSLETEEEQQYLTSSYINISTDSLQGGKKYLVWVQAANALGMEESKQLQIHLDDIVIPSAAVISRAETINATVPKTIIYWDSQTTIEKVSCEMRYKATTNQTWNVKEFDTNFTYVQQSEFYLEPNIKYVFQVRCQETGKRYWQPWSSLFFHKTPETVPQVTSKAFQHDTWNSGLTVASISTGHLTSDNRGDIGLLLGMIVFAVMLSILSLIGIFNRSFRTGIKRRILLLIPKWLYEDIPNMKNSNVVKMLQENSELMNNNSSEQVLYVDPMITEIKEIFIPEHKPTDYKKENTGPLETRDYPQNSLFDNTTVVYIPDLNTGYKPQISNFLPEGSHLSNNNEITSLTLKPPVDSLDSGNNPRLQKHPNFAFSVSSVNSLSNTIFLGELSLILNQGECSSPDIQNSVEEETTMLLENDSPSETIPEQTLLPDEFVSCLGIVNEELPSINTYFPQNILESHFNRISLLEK
In words: IL23R Reporter Assay. The test is classed as cell-based. The following applies: HEK293 cells containing IL-23R, IL-12Rβ1 and STAT-inducible firefly luciferase reporter; 10 ng/mL IL-23 (EC90); 5 h. The gist of the method:
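HEK293 cells carrying IL-23R, IL-12Rβ1 and a STAT-driven firefly luciferase reporter (4000 cells/well) received compound, then 10 ng/mL IL-23 solution (EC90), and were incubated for 5 h at 37° C. BioGlo luminescence was normalised to IL-23 alone (0%) and 30 μM control inhibitor (100%). IC50 came from a 4-parameter Hill fit.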
For orientation: In a reporter assay the amount or activity of a reporter protein is the signal.

*1 amine or outer side, *2 acyl side, *3 side chain or, on linkers, in order; H or OH if unused. Where a SMILES comes first, the peptide text is derived from it. Bridges are numbered along the chain shown (N, C = ends). Side-chain parts run from the residue outwards. [ ]: non-standard residue; d: D form. The star is where a group is joined. X32 = O=C(O)CCCCCCCCCCCCCCCCC(=O)N[C@@H](CCC(=O)NCCOCCOCCOCCOCCOCCOCCOCCOCCOCCOCCOCCCOCCC(=O)*)C(=O)O; X13 = O=C(O)CCCCCCCCCCCCCCCCC(=O)NCCOCCOCCOCCOCCOCCOCCOCCOCCOCCOCCOCCOCC(=O)*; X15 = C[N+](C)(C)CCOCCOCCC(=O)C[C@H](CCCCN[*:1])C(=O)[*:2]; Me3N+CH2CH2(OCH2CH2)4CO = C[N+](C)(C)CCOCCOCCOCCOCCC(=O)*; PEG12 = NCCOCCOCCOCCOCCOCCOCCOCCOCCOCCOCCOCCOCCC(=O)O; Trp(7-Me,2,3-dihydro) = Cc1cccc2c1NCC2C[C@H](N)C(=O)O; Trp(7-Me) = Cc1cccc2c(C[C@H](N)C(=O)O)c[nH]c12; C20 diacid = O=C(O)CCCCCCCCCCCCCCCCCCC(=O)*; C18 diacid = O=C(O)CCCCCCCCCCCCCCCCC(=O)*; X6 = CN(CC[C@H](N[*:1])C(=O)[*:2])[*:3]; γGlu = O=C(O)[C@H](CCC(=O)[*:2])N[*:1]; 2Nal = N[C@@H](Cc1ccc2ccccc2c1)C(=O)O; AEF = NCCOc1ccc(C[C@H](N)C(=O)O)cc1; 3Pal = N[C@@H](Cc1cccnc1)C(=O)O; Lys(Me) = CNCCCC[C@H](N)C(=O)O; NMeK = CN[C@@H](CCCCN)C(=O)O; Pen = CC(C)(S)[C@H](N)C(=O)O; Thp = NC1(C(=O)O)CCOCC1; X1 = C[N+](C)(C)CCCCC*; Sar = CNCC(=O)O A value given as a limit tells only on which side of the number the result lay.

Take `CC(=O)N(C)CCCC[C@@H]1NC(=O)[C@H](Cc2c[nH]c3c(C)cccc23)NC(=O)[C@H]([C@@H](C)O)NC(=O)[C@H](CC(=O)N(C)C)NC(=O)[C@@H](NC(=O)[C@@H](CCCCNC(=O)CCOCCOCCOCCOCCOCCOCCOCCOCCOCCOCCOCCOCCNC(=O)CC[C@H](NC(=O)CCCCCCCCCCCCCCCCC(=O)O)C(=O)O)CC(=O)CCOCCOCC[N+](C)(C)C)C(C)(C)SSC(C)(C)[C@@H](C(=O)N[C@@H](Cc2ccc(OCCCCC[N+](C)(C)C)cc2)C(=O)N[C@@H](Cc2ccc3ccccc3c2)C(=O)NC2(C(=O)N[C@@H](CCCCN(C)C(C)=O)C(=O)N[C@@H](CC(N)=O)C(=O)N[C@@H](Cc3cccnc3)C(=O)N(C)CC(=O)N(C)C)CCOCC2)NC1=O` [compound 132, cPEG3aCO-k(PEG12gEC18OH)-Pen(3)-N(N(Me)2)-T-7MeW-K(NMeAc)-Pen(3)-TMAPF-2Nal-THP-K(NMeAc)-N-3Pya-Sar-CON(Me)2] ({C18 diacid-γGlu-PEG12}-[X15][Pen]D(NMe2)T[Trp(7-Me)][Lys(Me)](Ac)[Pen]Y(X1)[2Nal][Thp][Lys(Me)](Ac)N[3Pal][Sar]-NMe2; disulfide 2-7): the IC50 (in general, the midpoint of a concentration-inhibition curve) in test [1] is < 0.5 nM; in test [2], < 50 nM.

With `CC(=O)NCCCC[C@@H]1NC(=O)[C@H](Cc2c[nH]c3c(C)cccc23)NC(=O)[C@H]([C@@H](C)O)NC(=O)[C@H](CC(N)=O)NC(=O)[C@@H](NC(=O)[C@@H](CCCNC(=N)N)NC(C)=O)C(C)(C)SSC(C)(C)[C@@H](C(=O)N[C@@H](Cc2ccc(OCCN)cc2)C(=O)N[C@@H](Cc2ccc3ccccc3c2)C(=O)NC2(C(=O)N[C@@H](CCC(=O)O)C(=O)N[C@@H](CC(N)=O)C(=O)N[C@@H](Cc3cccnc3)C(=O)N(C)CC(=O)N[C@@H](CCCCNC(=O)CCOCCCOCCOCCOCCOCCOCCOCCOCCOCCOCCOCCOCCNC(=O)CC[C@H](NC(=O)CCCCCCCCCCCCCCCCC(=O)O)C(=O)O)C(N)=O)CCOCC2)NC1=O` [compound 133, MeCO-r-Pen(3)-N-T-7MeW-K(Ac)-Pen(3)-AEF-2Nal-THP-E-N-3Pya-Sar-K(PEG12gEC18OH)-CONH2] (Ac-[dR][Pen]NT[Trp(7-Me)]K(Ac)[Pen][AEF][2Nal][Thp]EN[3Pal][Sar]K(X32)-NH2; disulfide 2-7), the IC50 in test [1] is < 0.5 nM; in test [2], < 50 nM.

With `CC(=O)NCCCC[C@@H]1NC(=O)[C@H](Cc2c[nH]c3c(C)cccc23)NC(=O)[C@H]([C@@H](C)O)NC(=O)[C@H](CC(N)=O)NC(=O)[C@@H](NC(=O)[C@@H](CCCNC(=N)N)NC(C)=O)C(C)(C)SSC(C)(C)[C@@H](C(=O)N[C@@H](Cc2ccc(OCCN)cc2)C(=O)N[C@@H](Cc2ccc3ccccc3c2)C(=O)NC2(C(=O)N[C@@H](CCC(=O)O)C(=O)N[C@@H](CC(N)=O)C(=O)N[C@@H](Cc3cccnc3)C(=O)N(C)CC(=O)N[C@@H](CCCCNC(=O)CCOCCOCCOCCOCCOCCOCCOCCOCCOCCOCCOCCOCCNC(=O)CC[C@H](NC(=O)CCCCCCCCCCCCCCCCCCC(=O)O)C(=O)O)C(N)=O)CCOCC2)NC1=O` [compound 134, MeCO-r-Pen(3)-N-T-7MeW-K(Ac)-Pen(3)-AEF-2Nal-THP-E-N-3Pya-Sar-K(PEG12gEC20OH)-CONH2] (Ac-[dR][Pen]NT[Trp(7-Me)]K(Ac)[Pen][AEF][2Nal][Thp]EN[3Pal][Sar]K([PEG12-γGlu-C20 diacid])-NH2; disulfide 2-7), the 50% inhibitory concentration (IC50) in test [1] is < 0.5 nM; in test [2], < 50 nM.

For the molecule `Cc1cccc2c1NCC2C[C@@H]1NC(=O)[C@H]([C@@H](C)O)NC(=O)[C@H](CC(=O)N(C)C)NC(=O)[C@@H](NC(=O)CCOCCOCCOCCOCC[N+](C)(C)C)C(C)(C)SSC(C)(C)[C@@H](C(=O)N[C@@H](Cc2ccc(OCCN)cc2)C(=O)N[C@@H](Cc2ccc3ccccc3c2)C(=O)NC2(C(=O)N[C@@H](CCC(=O)O)C(=O)N[C@@H](CC(N)=O)C(=O)N[C@@H](Cc3cccnc3)C(=O)N(C)[C@@H](CCCCNC(=O)COCCOCCOCCOCCOCCOCCOCCOCCOCCOCCOCCOCCNC(=O)CCCCCCCCCCCCCCCCC(=O)O)C(N)=O)CCOCC2)NC(=O)[C@H](CCN(C)C(=O)CCOCCOCCOCCOCC[N+](C)(C)C)NC1=O` (some centres unmarked) [compound 136, cPEG5aCO-Pen(3)-N(N(Me)2)-T-7MeW-Dab(NMecPEG5a)-Pen(3)-AEF-2Nal-THP-E-N-3Pya-NMeK(PEG12C18OH)-CONH2] ({Me3N+CH2CH2(OCH2CH2)4CO}-[Pen]D(NMe2)T[Trp(7-Me,2,3-dihydro)][X6](Me3N+CH2CH2(OCH2CH2)4CO)[Pen][AEF][2Nal][Thp]EN[3Pal][NMeK](X13)-NH2; disulfide 1-6), the IC50 is 0.5 to 5 nM in test [1] and 50 to 500 nM in test [2].
